The test relates to BM5d proviral DNA. In words: PCR analysis of BM5d proviral DNA in spleen, lymph node and bone marrow. In kind it is in vivo, C57BL/6 mice. As to conditions: for % of inhibition of BM5d proviral DNA, Bonemarrow / % of inhibition of BM5d proviral DNA, Lymphnode / % of inhibition of BM5d proviral DNA, Spleen: after 7 weeks of infection. The source says:
The following oligonucleotide primers were used for the amplification of a 141-bp gag gene of defective virus genome (BM5d); 5' primer, 5'-AACCTTCCTCCTCTGCCA-3' (sense) corresponding to nucleotides 1456-1473 and 3' primer, 5'-ACCACCTCTCGGGCTTTC-3' (antisense) corresponding to nucleotides 1579-1596 of the BM5d genome (Chat topadhyay SK, Sengupta D.N., FredricksonT.N., Morse H.C. III, Hartley J.W., "Characteristics and contributions of defective, ecotropic and mink cell focus-inducing viruses in a retrovirus induced immunodeficiency syndrome of mice.", J..Virol. 1991; 65: 4232-41.). A second pair or oligonucleotide primers was used for amplification of 203-bp of the mouse glucose-6-phosphate dehydrogenase (G6PD) gene. This amplification served as an internal control (endogenous standard) for evaluation of the relative BM5d proviral DNA. The nucleotide primers for the amplification were as follows: 5' primer, 5'-[…]-3' (sense) and 3' primer, 5'-[…]-3' (antisense) (Kurdi-Haidar B., Mason P.J., Berrebi A., et al., "Origin and spread of the glucose-6-phosphate dehydrogenase variant (G6PD-Mediterranean) in the Middle East.", Am. J. Hum. Genet. 1990; 47:1013-19.).
Probe D30, which was derived from the 137-bp Smal-Xhol p12 gag fragment of the defective virus genome (DU5H), was kindly provided by P. Jolicoeur (Montreal, Canada) (Aziz D.C., Hanna Z., Jolicoeur P., "Severe immunodeficiency disease induced by a defective murine leukemia virus.", Nature 1989; 338: 505-08).
Total cellular DNA was isolated from the spleens, lymph nodes and bone marrow of uninfected, infected and infected/treated mice by the sodium iodide isopropanol method.
PCR amplifications were performed in a 25 µl final volume using the Perkin Elmer GeneAMP kit (1 mM MgCl2, 2.5 U AmpliTag) with 0.3 µg total cellular DNA and 20 pmol of each primer.
PCR reaction were carried out for 37 cycles at 95°C for 30 sec, 58°C for 30 sec and 72°C for 30 sec with a final extension at 72°C for 10 min.
Products were analyzed by electrophoresis on agarose gel, blotted and hybridized with either the ^32P-labeled D30 or G6PD probe.
The intensity of radiolabeled bands was analyzed and quantified in a GS-250 Molecular Imager™ (Bio-Rad, Hercules, CA, USA). For BM5d proviral DNA detection the relative integration was determined by dividing the intensity of the BM5d bands by the intensity of G6PD bands (Fraternale A., Casabianca A., Rossi L., et al., "Inhibition of murine AIDS by combination of AZT and dideoxycytidine 5'-triphosphate.", J. Acquir. Imm. Def Syndr. and Hum. Retrovir. 1996; 12:164-73). The percentages of inhibition were referred to the infected mice.

[1] abbreviates: group a: 3.0 mg i.p. once a day for 5 consecutive days, 4 weeks.
Setting [2] is: group b: 3.0 mg i.p. twice a day for 5 consecutive days, 4 weeks.
Where [3] appears, read: group c: 10 mg in drinking water for 5 consecutive days, 4 weeks.
[4] abbreviates: group d: 15 mg in drinking water for 5 consecutive days, 4 weeks.
The mark [5] stands for this setting: treatment c: after 6 weeks of infection 3 mg F-ara-AMP i.p. twice a day, 5 consecutive days, 4 weeks, at 10 weeks after infection.
[6] abbreviates: treatment g: after 6 weeks of infection 3 mg F-ara-AMP i.p. twice a day 4 weeks, then interrupted, at 15 weeks after infection.

Each structure is given as a SMILES string.

On to `Nc1nc(F)nc2c1ncn2[C@@H]1O[C@H](COP(=O)(O)O)[C@@H](O)[C@@H]1O` [F-ara-AMP, Fludarabine phosphate], for which, under setting [1], the “% of inhibition of BM5d proviral DNA, Bonemarrow” value (“% of inhibition … Bonemarrow” for short) came to 0%; the “% of inhibition of BM5d proviral DNA, Lymphnode” value (“% of inhibition … Lymphnode” below) is recorded as 19.76±11.10 %; the “% of inhibition of BM5d proviral DNA, Spleen” value (from here on “% of inhibition … Spleen”) was 25.74±17.54%. Besides, under setting [2], the “% of inhibition … Bonemarrow” value stood at 22.94±7.40 %; the “% of inhibition … Lymphnode” value is 54.63±13.12 %; the “% of inhibition … Spleen” value was determined as 39.85±16.70 %. Under setting [3], the “% of inhibition … Bonemarrow” value is 28.05±8.84 %; the “% of inhibition … Lymphnode” value was determined as 30.33±19.67 %; the “% of inhibition … Spleen” value was found to be 15.16±11.46%. Moreover, under setting [4], the “% of inhibition … Bonemarrow” value turned out to be 21.69±9.02 %; the “% of inhibition … Lymphnode” value is recorded as 12.16±5.48%; the “% of inhibition … Spleen” value stood at 27.40±8.47 %. Moreover, under setting [5], the “bone marrow, BM5d proviral DNA copy number (E)” value is 19,750±1,485 Proviral DNA molecules per 0.3 µg of total cellular DNA; the “bone marrow, inhibition of BM5d (% vs. Infected) (F)” value worked out at 30.32±5.24 %; the “lymph node, BM5d proviral DNA copy number (C)” value is given as 49,500±7758 Proviral DNA molecules per 0.3 µg of total cellular DNA; the “lymph node, inhibition of BM5d (% vs. Infected) (D)” value was determined as 77.46±3.53 %. In addition, under setting [5], the “spleen, BM5d proviral DNA copy number (A)” value is 37,900±15,717 Proviral DNA molecules per 0.3 µg of total cellular DNA and the “spleen, inhibition of BM5d (% vs. Infected) (B)” value came out at 74.27 ± 10.67 %. For the same compound, under setting [6], the “bone marrow, BM5d proviral DNA copy number (E)” value is reported as 33,900±3,736 Proviral DNA molecules per 0.3 µg of total cellular DNA; the “lymph node, BM5d proviral DNA copy number (C)” value is 180,000±8,544 Proviral DNA molecules per 0.3 µg of total cellular DNA; the “lymph node, inhibition of BM5d (% vs. Infected) (D)” value is recorded as 34.00±3.13 %; the “spleen, BM5d proviral DNA copy number (A)” value was 135,000±47,444 Proviral DNA molecules per 0.3 µg of total cellular DNA. Also, under setting [6], the “spleen, inhibition of BM5d (% vs. Infected) (B)” value came out at 31.47±24.08%.

Values taken from patent EP0987025A1, “Pharmaceitical composition or composition package containing a pyrimidine nucleoside analogue and a purine nucleoside analogue” (priority 1998, dated 2000).
